Experimental findings from US6723897B2, “Methods for controlling gibberellin levels” (Monsanto Technology, LLC, priority 1998, dated 2004) are described below.

“And” between values parts separate entries of the source, which are not always exact repeats. Equal values may be shown once.

The subject of data set [1] is R1 lines from pMON29220 (P-ICL/canola antisense CPS). In words: Emergence of R1 canola seed (pMON29220) with exogenous GA3. The format is in vivo, Brassica napus. Conditions: GA3 10^−5 M to the seed or soil; lines with 2 day delay in emergence. The text has this:
Seeds are produced from plants transformed with plasmid pMON29220 (P-ICL/canola antisense CPS). These are planted and analyzed for germination phenotype. A 2 day delay in emergence is observed for 58% of the R1 lines tested from pMON29220.

For another data set, the system named is A3237 soybean. The data set is described as follows: GA3 soil drench, shoot length of control soybean. Conditions: line A3237; +3 × 10^−6 M GA3 soil drench; 7 days after planting. The format is in vivo, Glycine max. An excerpt:
Thirty-five soybean plants are produced by transformation with pMON29801 (FIG. 7) containing the antisense CPS conserved core (asCPScc) gene driven by constitutive FMV promoter. The seed (R1) from the initial R0 transgenic lines is collected. R1 seeds are sown in 4-inch pots filled with commercial potting soil (Metromix 350) that is saturated with water or GA3 at a rate of either 3×10^−6 or 10^−5 M. Typically, 20 seeds are sown in 10 pots for each treatment, except where the seed supply is limiting. Pots are incubated in a greenhouse routinely used for soybean growth. Emergence is scored versus days after planting (DAP). Two soybean lines, 724 and 720, show a delayed emergence phenotype. Line 724 emergence is 1 to 2 days later than the control.
GA3 added to plasmid pMON29801 transgenic soybean seeds as a soil drench also restores soybean emergence timing and plant height during early seedling growth. Rates of GA3 between 1×10^−6 and 1×10^−5 M, when added to soil either immediately before planting or immediately after, restores normal shoot length in emerged Line #719 seedlings (Table 5).

Data set [2] deals with pMON29801 soybean line 719. In words: Foliar GA3 spray, stature of FMV/asCPScc soybean. The format is in vivo, Glycine max. An excerpt:
A foliar spray of GA3 restores normal stature of Line 719 plants. GA3 restores normal vegetative development (Table 6) when sprayed on the foliage of GA-deficient dwarf plants during vegetative development at rates between 10^−4 and 10^−6 M plus a surfactant (Tween 20, 0.05% v/v).

In data set [3] the test system is asCPScc soybean lines 696, 719, 720 and 724. In words: Seed yield of asCPScc soybean lines treated with GA3. The format is in vivo, Glycine max. As to the method: One hundred nine soybean plants from four […] lines (696, 719, 720 and 724) identified with GA-deficient phenotypes are grown to maturity and the seed harvested. Three of the lines (696, 719 and 720) required weekly spraying with GA3 to restore normal vegetative growth. […] Seed yield, seed weight per seed, pod number and seeds/pod data are collected for each plant. Data is collected in three groups for each line: plants that are wild-type; plants that are dwarfs and received no exogenous GA; and plants that are treated with exogenous GA3. […] Line 724 dwarf plants produces equivalent yields to the wild-type plants within this line without any external spraying. […] Line 724 has no reduction in seed weight in dwarfs without supplying exogenous GA.

Data set [4] deals with pMON34439 soybean lines 46 and 202. In words: GA3 soil drench plus foliar spray on AX5/antisense CPScc seedlings. The format is in vivo, Glycine max. Conditions: 1×10^−6 M GA3 soil drench before planting plus foliar 1×10^−5 M GA3 spray. An excerpt: Two out of 59 transgenic soybean lines transformed with construct pMON34439 (AX5 promoter/antisense CPScc, FIG. 26), lines 46 and 202, show a reduced stature during early seedling growth and then resume normal vegetative growth. Twenty seeds of each line are sown in Metromix 350 soil in 3″ plastic pots in the greenhouse, approximately 40% of the seedlings are reduced in stature for line 46 and 25, 35% for line 202.

For data set [5], the system named is ancymidol-treated soybean. In words: GA3 soil drench restoring seedling height in ancymidol-treated soybean. The format is in vivo, Glycine max. The text has this: For example, in side-by-side comparisons using soybean, the same dose of GA3 gives substantial differences in hypocotyl elongation depending on the method of application. The relative sensitivity can be: soil drench>hilum treatment>seed imbibition). Also, the dose of GA3, applied as a soil drench, that is needed to fully restore normal seedling height in ancymidol-treated soybean increases with time after planting (10^−7M at 4 DAP; greater than 10^−5 M at 11 DAP).

The test system of data set [6] is wild-type soybean variety A4922. In words: GA3 seed treatment, soybean stand count and yield in the field. The format is in vivo, Glycine max. The text has this:
Treated seed is planted about 1 inch deep in previously disced soil using a cone planter. The rows are about 30 inches (76.2 cm) apart, and 15 feet (457.2 cm) long. Seeds are spaced about 3 inches (7.62 cm) apart within the rows. The emerged plants are counted periodically, and seed yields are obtained at harvest. The plant counts and yields are converted to a per acre basis. […] The decrease in plant population per acre is due to lack of emergence, in part due to broken and unhooked hypocotyls. In addition, some of the emerged plants are abnormal, e.g., with small, broken cotyledons, etc.

Data set [7] is described as follows: Half-lives of 14C-labelled GA compounds in soil. Particulars: spinks soil, aerobic, 25° C., darkness; read-out: Half-life (days) in soil (converted). As to the method:
Metabolic studies in soil are conducted with ^14C-labelled GA compounds in order to investigate the route and rate of compound degradation in soil under aerobic conditions. ^14C-labelled GA compounds are obtained from Lew Mander (Australian National University). The ^14C-labelled compounds dissolved in 0.2-2 ml water:ethanol, 80:20, v/v, are applied to 50-60 gm portions of spinks soil (USDA classification Loamy Sand: 82% sand, 14% silt, and 4% clay) in 250 ml centrifuge bottles at a rate of 0.1-0.2 ppm (6-12 μg; approximately 1,200,000 dpm per soil sample. The soil samples are placed in a glass dessicator which served as a container for all soil bottles. The glass dessicator is connected to three separate trapping solutions in series, each containing 20 ml of ethylene glycol:ethanolamine, 2:1, v/v. Air is pulled into the glass dessicator and through the trapping solutions by house vacuum. The trapping solutions are used to collect ^14C-volatiles and ^14C-CO2. Soil samples are incubated for eight days at 25° C. in darkness. For most experiments, duplicate soil samples are harvested 0, 6, 12, 24, 46, 72, 120, and 192 hours after initial treatment. Soil samples are extracted twice with 100 ml of water:methanol, 20:80, v/v, and the combined extracts are analyzed by HPLC under the same conditions as described for the determination of half-lives of GA compounds in planta, above.

In data set [8] the test system is wild-type (A3237) soybean. The data set is described as follows: Hilum treatment with GA15, GA19, GA24, GA44, hypocotyl length, wild-type soybean. Particulars: 10 μg/seed, 5 DAP.
Method: The purpose of this experiment is to evaluate potential gibberellin rescue agents occurring at an intermediate or middle portion of the gibberellin biosynthesis pathway (between GA53/GA12 and GA20/GA9) as seed treatments. These GA compounds are tested using hilum treatment and comparing activity on GA-deficient soybean plants and normal (wild-type) plants.
Wild-type A3237 soybeans are obtained from Asgrow Seed Company. Transgenic seeds are fifth generation (R5) line 719 seeds.
The GA compounds are dissolved in absolute ethanol at a concentration of approximately 10 μg/ml. Compounds are applied to the hilum of dry soybean seed as 1 μl drops. Seeds are sown in 4-inch plastic pots (2 pots per treatment; 5 seeds/pot) containing commercial potting soil (Metromix 200) placed in a greenhouse set for 12 hr light, and day and night temperatures of 85° F. (29° C.) and 75° F. (24° C.), respectively. After all treatments are emerged (5 DAP), hypocotyl length is measured.
[9] abbreviates: 'no GA': single spray treatment at 21 DAP with GA, not further sprayed.
Where [10] appears, read: GA sprayed approximately every week starting at 21 DAP.

One may read the half-life as the time needed for the level to fall by half in the phase considered. For `C=C1C[C@]23C[C@@]1(O)CC[C@H]2[C@@]12C=C[C@H](O)[C@@](C)(C(=O)O1)[C@H]2[C@@H]3C(=O)O` [GA3, gibberellic acid], the emergence delay entry in data set [1] is recorded as “rescuing the emergence delay”. Also, the “Plant height (cm)” value in the data set with A3237 soybean is reported as 14.9 (0.3) cm. Also, the “Plant height (cm), 21 DAP” value in [2] (setting [9]) was 2.0 cm and 2.5 cm; in [2] (setting [10]), 2.5 cm. Also, the “Plant height (cm), 50 DAP” value in [2] (setting [9]) was 13 cm; in data set [2] (setting [10]), 61 cm and 56 cm. The “reduction of seed weight per seed” value in [3] (dwarf plants, GA treatments) was “nearly completely rescued”. Further, in data set [3] (dwarfs treated continuously with GA3, lines 696 and 719), the “seed yield restored, % of the yield of the wild-types” value amounted to 70%. Further, the “normal growth rate of seedlings” value in [4] was “at least partially restored”. For the same compound, the “dose of GA3 needed to fully restore normal seedling height” value in data set [5] (4 DAP) is recorded as 10^−7 M; in data set [5] (11 DAP), “greater than 10^−5 M”. Further, the “Plants per Acre” value is 41,458 in [6] (5 ppm GA3 seed treatment), 35,133 in data set [6] (10 ppm GA3 seed treatment) and 30,566 in data set [6] (15 ppm GA3 seed treatment). Moreover, the results for the “Yield (bushels/acre)” value in data set [6] (5 ppm GA3 seed treatment), in data set [6] (10 ppm GA3 seed treatment) and in data set [6] (15 ppm GA3 seed treatment) were 41.6 bushels/acre, 31.9 bushels/acre and 31.4 bushels/acre, respectively. The half-life in [7] was 0.5 days. Further, the “hypocotyl elongation of wild-type (A3237) soybean (FIG. 41)” value in data set [8] was “overelongation of A3237 hypocotyls”.
